Test results taken from publication PMC8840488, “Antidiabetic Activity and In Silico Molecular Docking of Polyphenols from Ammannia baccifera L. subsp. Aegyptiaca (Willd.) Koehne Waste: Structure Elucidation of Undescribed Acylated Flavonol Diglucoside” (Plants, 2022).
Values belong to the compound of their own block, whether it stands above or below them.

Assays:
[1] = tested on: β-glucosidase; assay: In vitro β-glucosidase inhibition; assay type: biochemical; settings: for β-glucosidase IC50: concentration range 75–600 µg/mL
Procedure: The assay was performed in conformity with and used the same formula for amylase.

[2] = DPPH antioxidant assay
Procedure: The assay was carried out for AEEE and isolated phenolics according to Brand-Williams et al..

[3] = ORAC antioxidant assay
Excerpt: The antioxidant assay was applied to AEEE and the isolated phenolics.

[4] = Reducing power assay
Procedure: In the reducing-power assay, the more antioxidant compounds convert the oxidated form of iron (Fe^+3) in ferric chloride to ferrous (Fe^+2), which leads to an increase in colored ferrous-TPTZ complexes.
The assay was carried out on AEEE and the isolated phenolics (DeGraft-Johnson et al., 2007).

[5] = molecular target: T1, α-amylase (Homo sapiens, UniProt P04746); assay: In vitro α-amylase inhibition; assay type: biochemical; settings: for IC50: concentration range 75–600 µg/mL
T1 construct: purchased Sigma-Aldrich (Merck, Darmstadt, Germany)
T1 sequence (P04746 16-511): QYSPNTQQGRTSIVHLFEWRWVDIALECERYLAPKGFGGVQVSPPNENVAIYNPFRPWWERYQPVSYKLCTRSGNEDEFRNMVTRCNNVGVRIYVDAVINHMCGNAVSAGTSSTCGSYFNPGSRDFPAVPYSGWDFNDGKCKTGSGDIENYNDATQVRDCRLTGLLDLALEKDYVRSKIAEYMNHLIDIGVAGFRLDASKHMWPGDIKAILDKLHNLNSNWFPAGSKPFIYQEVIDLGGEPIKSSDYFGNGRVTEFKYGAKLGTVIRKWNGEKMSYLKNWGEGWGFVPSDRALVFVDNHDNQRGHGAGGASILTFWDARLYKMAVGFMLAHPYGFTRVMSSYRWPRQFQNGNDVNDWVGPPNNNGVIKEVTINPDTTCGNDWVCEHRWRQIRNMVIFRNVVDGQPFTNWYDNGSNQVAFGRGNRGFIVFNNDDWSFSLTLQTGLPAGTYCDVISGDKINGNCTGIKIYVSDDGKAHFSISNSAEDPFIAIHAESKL
Excerpt: The assay was implemented in accordance with. […] The percentage of inhibition can be estimated using the following Equation: 100−[{A sample/ Acontrol ×100]

[6] = molecular target: T2, pancreatic lipase (Homo sapiens, UniProt P16233); assay: In vitro pancreatic lipase inhibition; assay type: biochemical; settings: for IC50: concentration range 12–100 µg/mL
T2 sequence (P16233 17-465): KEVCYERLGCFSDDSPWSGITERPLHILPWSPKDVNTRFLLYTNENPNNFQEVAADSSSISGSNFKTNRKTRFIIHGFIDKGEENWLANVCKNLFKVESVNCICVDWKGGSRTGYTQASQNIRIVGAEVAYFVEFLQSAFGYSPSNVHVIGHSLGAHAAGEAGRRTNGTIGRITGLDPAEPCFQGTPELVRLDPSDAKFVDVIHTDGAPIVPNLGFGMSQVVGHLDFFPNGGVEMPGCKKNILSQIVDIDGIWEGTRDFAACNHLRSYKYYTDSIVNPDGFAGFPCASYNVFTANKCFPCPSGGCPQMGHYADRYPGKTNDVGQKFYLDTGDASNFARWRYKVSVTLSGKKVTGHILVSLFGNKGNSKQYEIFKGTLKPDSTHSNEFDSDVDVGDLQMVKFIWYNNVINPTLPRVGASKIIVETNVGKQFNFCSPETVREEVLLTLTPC
Procedure: The determination of the percentage inhibition of pancreatic lipase was calculated as prescribed by Hegazi et al., using the same formula for amylase.

Compound: C[C@H]1O[C@H](O[C@H]2[C@H](O)[C@@H](O)[C@@H](O[C@H]3[C@H](O)[C@@H](O)C(O)O[C@@H]3CO)O[C@@H]2CO)[C@H](O)[C@@H](O)[C@@H]1N[C@H]1C=C(CO)[C@@H](O)[C@H](O)[C@H]1O (stereo partly drawn) [Acarbose, reference compound]
β-glucosidase % Inhibition ([1]; at 600 µg/mL): 95.2 ± 2.30%
β-glucosidase IC50 [1]: 110.6 ± 3.20 µg/mL

Compound: O=C(OC[C@H]1O[C@@H](Oc2c(-c3cc(O)c(O)c(O)c3)oc3cc(O[C@@H]4O[C@H](CO)[C@@H](O)[C@H](O)[C@H]4O)cc(O)c3c2=O)[C@H](O)[C@@H](O)[C@@H]1O)c1cc(O)c(O)c(O)c1 [Compound 1, myricetin 3-O-β-^4C1-(6′′-O-galloyl glucopyranoside)-7-O-β-^4C1-glucopyranoside]
DPPH IC50 [2]: 2.37 ± 0.56 µg/mL
ORAC IC50 [3]: 2.01 ± 0.23 µg/mL
Ferrous reducing assay IC50 [4]: 158.13 ± 2.82 µg/mL
Reducing power ([4]; compared with quercetin as standard): comparable to that of standard quercetin
inhibition at 300 µg/mL [5]: 91.4 ± 2.45%
IC50 [5]: 198 µM
β-glucosidase % Inhibition ([1]; at 300 µg/mL): 92.70 ± 1.42 %
β-glucosidase IC50 [1]: 72.77 ± 2.67 µg/mL
inhibition at 100 µg/mL [6]: 87 ± 2.38%
IC50 [6]: 40.3 µM

Compound: C[C@@H]1O[C@@H](OC[C@H]2O[C@@H](Oc3c(-c4ccc(O)cc4)oc4cc(O)cc(O)c4c3=O)[C@H](O)[C@@H](O)[C@@H]2O)[C@H](O)[C@H](O)[C@H]1O [Compound 2, kaempfeol 3-O-rutinoside]
DPPH IC50 [2]: > 100 ± 13.67 µg/mL
ORAC IC50 [3]: > 100 ± 10.17 µg/mL
inhibition at 300 µg/mL [5]: 80.4 ± 3.81%
IC50 [5]: 348 µM
inhibition at 100 µg/mL [6]: 35.8 ± 3.84%
IC50 [6]: 228 µM

Compound: C[C@@H]1O[C@@H](OC[C@H]2O[C@@H](Oc3c(-c4ccc(O)c(O)c4)oc4cc(O)cc(O)c4c3=O)[C@H](O)[C@@H](O)[C@@H]2O)[C@H](O)[C@H](O)[C@H]1O [Compound 3, quercetin 3-O-rutinoside]
DPPH IC50 [2]: 8.81 ± 1.05 µg/mL
ORAC IC50 [3]: 8.02 ± 0.85 µg/mL
inhibition at 300 µg/mL [5]: 72.1 ± 3.49%
IC50 [5]: 366 µM
β-glucosidase % Inhibition ([1]; at 300 µg/mL): 66 ± 3.47 %
β-glucosidase IC50 [1]: 104 ± 3.80 µg/mL
inhibition at 100 µg/mL [6]: 82.2 ± 2.53%
IC50 [6]: 66.2 µM

Compound: CCCCCCCCCCC[C@@H](C[C@@H]1OC(=O)[C@H]1CCCCCC)OC(=O)[C@H](CC(C)C)NC=O [Orlistat, reference compound]
inhibition at 100 µg/mL [6]: 57 ± 4.5%

The next lines start with the values.

DPPH IC50 [2]: 4.64 ± 0.39 µg/mL
ORAC IC50 [3]: 4.14 ± 1.27 µg/mL
inhibition at 300 µg/mL [5]: 78.9 ± 4.13%
IC50 [5]: 276 µM
β-glucosidase % Inhibition ([1]; at 300 µg/mL): 58.44 ± 3.61 %
β-glucosidase IC50 [1]: 115.21 ± 4.90 µg/mL
inhibition at 100 µg/mL [6]: 19.5 ± 4.36%
IC50 [6]: 343 µM
Compound: O=C(O[C@@H]1[C@@H](OC(=O)c2cc(O)c(O)c(O)c2)[C@H](O)O[C@@H]2COC(=O)c3cc(O)c(O)c(O)c3-c3c(cc(O)c(O)c3O)C(=O)O[C@@H]12)c1cc(O)c(O)c(O)c1 [Compound 4, tellimagranidine-I]

DPPH IC50 [2]: 4.81 ± 0.73 µg/mL
ORAC IC50 [3]: 4.43 ± 0.68 µg/mL
inhibition at 300 µg/mL [5]: 78 ± 1.15%
IC50 [5]: 448 µM
β-glucosidase % Inhibition ([1]; at 300 µg/mL): 68.43 ± 2.30 %
β-glucosidase IC50 [1]: 100.23 ± 3.80 µg/mL
inhibition at 100 µg/mL [6]: 18.7 ± 3.1%
IC50 [6]: 549 µM
Compound: O=C(O[C@H]1[C@H](O)[C@@H](CO)OC(O)[C@@H]1OC(=O)c1cc(O)c(O)c(O)c1)c1cc(O)c(O)c(O)c1 (stereo partly drawn) [Compound 5, 2,3-α, β-digalloy glucose]

ORAC IC50 [3]: 28.0 ± 14.31 µg/mL
Compound: Cc1c(C)c2c(c(C)c1O)CCC(C)(C(=O)O)O2 (stereo not drawn) [Trolox, reference compound]

DPPH IC50 [2]: 1.83 ± 1.41 µg/mL
Compound: O=C1O[C@H]([C@@H](O)CO)C(O)=C1O [Vitamin C, reference compound]
